Source: ChEMBL document CHEMBL1147599 (Bioorg Med Chem Lett, 2004)

Target: T1, Neuropeptide Y receptor type 2 (Homo sapiens, UniProt P49146)
T1 sequence (P49146 whole entry): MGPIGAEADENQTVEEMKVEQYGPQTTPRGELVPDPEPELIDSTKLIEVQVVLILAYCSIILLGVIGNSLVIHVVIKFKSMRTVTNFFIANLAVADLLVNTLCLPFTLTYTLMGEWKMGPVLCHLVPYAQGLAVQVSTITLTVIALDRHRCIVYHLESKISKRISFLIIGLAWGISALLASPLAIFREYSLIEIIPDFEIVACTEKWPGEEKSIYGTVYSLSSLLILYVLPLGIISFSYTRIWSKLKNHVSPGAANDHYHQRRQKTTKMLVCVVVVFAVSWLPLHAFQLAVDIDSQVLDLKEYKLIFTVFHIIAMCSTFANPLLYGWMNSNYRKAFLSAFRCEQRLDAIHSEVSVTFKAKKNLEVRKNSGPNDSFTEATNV
Experiment: Binding affinity towards the NPY Y2 receptor

SMILES	IC50 [µM]
CC(=O)N1CCc2ccc(N(C3CCN(Cc4ccccc4)CC3)S(=O)(=O)/C=C/c3ccccc3)cc21	30
CC(=O)N1CCc2ccc(N(C(=O)/C=C/c3ccccc3)C3CCN(Cc4ccccc4)C3)cc21 (stereo not drawn)	17.5
CC(=O)N1CCc2ccc(N(C/C=C/c3ccccc3)C3CCN(Cc4ccccc4)CC3)cc21	30
